Legend:
Assay in all cases: relative viability (nuclei count vs DMSO), 5 days (fraction); higher = more cells survive
[1] = tested on: A549
In short: (§1)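 Dosing by pin tool came one day after lung cancer cell lines were seeded in 1536-well plates, using either one drug or a fixed anchor-drug dose plus five library-drug doses (not always all listed) in √10 steps. After 5 days, nuclei were counted on 4× images. Relative viability is treated-well nuclei count divided by vehicle-well nuclei count, and values are medians of duplicate plates.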

[2] = tested on: COR-L 105
In short: as §1

[3] = tested on: LCLC-103H
In short: as §1

[4] = tested on: LK-2
In short: as §1

[5] = tested on: NCI-H1355
In short: as §1

[6] = tested on: NCI-H1648
In short: as §1

[7] = tested on: NCI-H1666
In short: as §1

[8] = tested on: NCI-H520
In short: as §1

[9] = tested on: NCI-H522
In short: as §1

CC(=O)O[C@@]12CO[C@@H]1C[C@H](O)[C@@]1(C)C(=O)[C@H](O)C3=C(C)[C@@H](OC(=O)[C@H](O)[C@@H](NC(=O)OC(C)(C)C)c4ccccc4)C[C@@](O)([C@@H](OC(=O)c4ccccc4)[C@H]21)C3(C)C [Docetaxel] + Nc1ncn([C@H]2C[C@H](O)[C@@H](CO)O2)c(=O)n1 [Decitabine] (partner 2 µM)
relative viability ([1]; first compound 0.0002 µM): 0.297
relative viability ([1]; first compound 0.000632 µM): 0.18
relative viability ([1]; first compound 0.002 µM): 0.0587
relative viability ([1]; first compound 0.006325 µM): 0.0522
relative viability ([1]; first compound 0.02 µM): 0.0318
relative viability ([2]; first compound 0.0002 µM): 0.666
relative viability ([2]; first compound 0.000632 µM): 0.533
relative viability ([2]; first compound 0.002 µM): 0.442
relative viability ([2]; first compound 0.006325 µM): 0.394
relative viability ([2]; first compound 0.02 µM): 0.364
relative viability ([3]; first compound 0.0002 µM): 0.712
relative viability ([3]; first compound 0.000632 µM): 0.796
relative viability ([3]; first compound 0.002 µM): 0.761
relative viability ([3]; first compound 0.006325 µM): 0.713
relative viability ([3]; first compound 0.02 µM): 0.524
relative viability ([4]; first compound 0.0002 µM): 0.348
relative viability ([4]; first compound 0.000632 µM): 0.224
relative viability ([4]; first compound 0.002 µM): 0.115
relative viability ([4]; first compound 0.006325 µM): 0.126
relative viability ([4]; first compound 0.02 µM): 0.13
relative viability ([5]; first compound 0.0002 µM): 0.35
relative viability ([5]; first compound 0.000632 µM): 0.365
relative viability ([5]; first compound 0.002 µM): 0.286
relative viability ([5]; first compound 0.006325 µM): 0.276
relative viability ([5]; first compound 0.02 µM): 0.179
relative viability ([6]; first compound 0.0002 µM): 0.452
relative viability ([6]; first compound 0.000632 µM): 0.487
relative viability ([6]; first compound 0.002 µM): 0.339
relative viability ([6]; first compound 0.006325 µM): 0.216
relative viability ([6]; first compound 0.02 µM): 0.231
relative viability ([7]; first compound 0.0002 µM): 0.594
relative viability ([7]; first compound 0.000632 µM): 0.64
relative viability ([7]; first compound 0.002 µM): 0.504
relative viability ([7]; first compound 0.006325 µM): 0.477
relative viability ([7]; first compound 0.02 µM): 0.425
relative viability ([8]; first compound 0.0002 µM): 0.454
relative viability ([8]; first compound 0.000632 µM): 0.465
relative viability ([8]; first compound 0.002 µM): 0.333
relative viability ([8]; first compound 0.006325 µM): 0.249
relative viability ([9]; first compound 0.0002 µM): 0.641
relative viability ([9]; first compound 0.000632 µM): 0.571
relative viability ([9]; first compound 0.002 µM): 0.586
relative viability ([9]; first compound 0.006325 µM): 0.448
relative viability ([9]; first compound 0.02 µM): 0.377

Cc1sc2c(c1C)C(c1ccc(Cl)cc1)=N[C@@H](CC(=O)OC(C)(C)C)c1nnc(C)n1-2 [JQ1] + Nc1ncn([C@H]2C[C@H](O)[C@@H](CO)O2)c(=O)n1 [Decitabine] (partner 2 µM)
relative viability ([1]; first compound 0.04 µM): 0.275
relative viability ([1]; first compound 0.1265 µM): 0.267
relative viability ([1]; first compound 0.4 µM): 0.378
relative viability ([1]; first compound 1.265 µM): 0.405
relative viability ([1]; first compound 4 µM): 0.252
relative viability ([2]; first compound 0.04 µM): 0.558
relative viability ([2]; first compound 0.1265 µM): 0.457
relative viability ([2]; first compound 0.4 µM): 0.399
relative viability ([2]; first compound 1.265 µM): 0.33
relative viability ([2]; first compound 4 µM): 0.386
relative viability ([3]; first compound 0.04 µM): 0.684
relative viability ([3]; first compound 0.1265 µM): 0.575
relative viability ([3]; first compound 0.4 µM): 0.544
relative viability ([3]; first compound 1.265 µM): 0.48
relative viability ([3]; first compound 4 µM): 0.542
relative viability ([4]; first compound 0.04 µM): 0.272
relative viability ([4]; first compound 0.1265 µM): 0.351
relative viability ([4]; first compound 0.4 µM): 0.27
relative viability ([4]; first compound 1.265 µM): 0.132
relative viability ([4]; first compound 4 µM): 0.129
relative viability ([5]; first compound 0.04 µM): 0.348
relative viability ([5]; first compound 0.1265 µM): 0.342
relative viability ([5]; first compound 0.4 µM): 0.337
relative viability ([5]; first compound 1.265 µM): 0.319
relative viability ([5]; first compound 4 µM): 0.249
relative viability ([6]; first compound 0.04 µM): 0.497
relative viability ([6]; first compound 0.1265 µM): 0.652
relative viability ([6]; first compound 0.4 µM): 0.409
relative viability ([6]; first compound 1.265 µM): 0.398
relative viability ([6]; first compound 4 µM): 0.286
relative viability ([7]; first compound 0.04 µM): 0.763
relative viability ([7]; first compound 0.1265 µM): 0.745
relative viability ([7]; first compound 0.4 µM): 0.577
relative viability ([7]; first compound 1.265 µM): 0.589
relative viability ([7]; first compound 4 µM): 0.504
relative viability ([8]; first compound 0.04 µM): 0.52
relative viability ([8]; first compound 0.1265 µM): 0.561
relative viability ([8]; first compound 0.4 µM): 0.443
relative viability ([8]; first compound 1.265 µM): 0.349
relative viability ([8]; first compound 4 µM): 0.355
relative viability ([9]; first compound 0.04 µM): 0.656
relative viability ([9]; first compound 0.1265 µM): 0.635
relative viability ([9]; first compound 0.4 µM): 0.661
relative viability ([9]; first compound 1.265 µM): 0.473
relative viability ([9]; first compound 4 µM): 0.501

Source: the supplement of paper PMC10307832
